Data set [1] has as its target soluble, sperm-specific adenylate cyclase (sAC) (Homo sapiens, UniProt Q96PN6). Briefly: sAC-Assay (HTRF cAMP detection). In kind it is biochemical. As to conditions: read-out: IC50 (inhibition of the soluble adenylate cyclase). An excerpt: In a suitable buffer system, the soluble, sperm-specific adenylate cyclase catalyzes the reaction of adenosine triphosphate (ATP) to cyclic adenosine monophosphate (cAMP) and pyrophosphate. Free cAMP that is generated in this way is then used in a competitive detection process, in which the binding of a europium kryptate (Eu[K])-labeled anti-cAMP antibody (anti cAMP-Eu[K]-AK) to a cAMP-molecule-labeled, modified allophycocyanine-1 molecule (cAMP-XL665) is prevented. In the absence of exogenic cAMP, after excitation at 335 nm, it results in a fluorescence resonance energy transfer (FRET) between the anti cAMP-Eu[K]-AK (FRET-donor) and the cAMP-XL665 molecule (FRET-acceptor). This process is quantified at different times (time-resolved) based on the emission of FRET-acceptor XL665 (665 nm and 620 nm). A signal drop (measured as a wave ratio; calculation formula: [(E665 nm/E620 nm)×10000]) can be attributed to the presence of cAMP and thus to the activity of sAC.
First, 1.5 μl of the test substance (in 30% DMSO), only 30% DMSO in the solvent controls, is introduced per recess in a 384-hole test plate (polystyrene; 384, NV). […]
After an additional incubation of 90 minutes at room temperature, the HTRF result is measured either on the Packard Discovery or with the RubiStar HTRF measuring device (Delay: 50 μs; Integration time: 400 μs).
On the technique in general: Time-resolved FRET reads energy transfer from a long-lived donor to a nearby acceptor.

The conditions of data set [2]: statement on known sAC inhibitors; cited from earlier work.

The structures appear in SMILES notation.

By IC50 is commonly meant the concentration needed to halve the response being measured.

soluble, sperm-specific adenylate cyclase (sAC), sequence (Q96PN6 whole entry): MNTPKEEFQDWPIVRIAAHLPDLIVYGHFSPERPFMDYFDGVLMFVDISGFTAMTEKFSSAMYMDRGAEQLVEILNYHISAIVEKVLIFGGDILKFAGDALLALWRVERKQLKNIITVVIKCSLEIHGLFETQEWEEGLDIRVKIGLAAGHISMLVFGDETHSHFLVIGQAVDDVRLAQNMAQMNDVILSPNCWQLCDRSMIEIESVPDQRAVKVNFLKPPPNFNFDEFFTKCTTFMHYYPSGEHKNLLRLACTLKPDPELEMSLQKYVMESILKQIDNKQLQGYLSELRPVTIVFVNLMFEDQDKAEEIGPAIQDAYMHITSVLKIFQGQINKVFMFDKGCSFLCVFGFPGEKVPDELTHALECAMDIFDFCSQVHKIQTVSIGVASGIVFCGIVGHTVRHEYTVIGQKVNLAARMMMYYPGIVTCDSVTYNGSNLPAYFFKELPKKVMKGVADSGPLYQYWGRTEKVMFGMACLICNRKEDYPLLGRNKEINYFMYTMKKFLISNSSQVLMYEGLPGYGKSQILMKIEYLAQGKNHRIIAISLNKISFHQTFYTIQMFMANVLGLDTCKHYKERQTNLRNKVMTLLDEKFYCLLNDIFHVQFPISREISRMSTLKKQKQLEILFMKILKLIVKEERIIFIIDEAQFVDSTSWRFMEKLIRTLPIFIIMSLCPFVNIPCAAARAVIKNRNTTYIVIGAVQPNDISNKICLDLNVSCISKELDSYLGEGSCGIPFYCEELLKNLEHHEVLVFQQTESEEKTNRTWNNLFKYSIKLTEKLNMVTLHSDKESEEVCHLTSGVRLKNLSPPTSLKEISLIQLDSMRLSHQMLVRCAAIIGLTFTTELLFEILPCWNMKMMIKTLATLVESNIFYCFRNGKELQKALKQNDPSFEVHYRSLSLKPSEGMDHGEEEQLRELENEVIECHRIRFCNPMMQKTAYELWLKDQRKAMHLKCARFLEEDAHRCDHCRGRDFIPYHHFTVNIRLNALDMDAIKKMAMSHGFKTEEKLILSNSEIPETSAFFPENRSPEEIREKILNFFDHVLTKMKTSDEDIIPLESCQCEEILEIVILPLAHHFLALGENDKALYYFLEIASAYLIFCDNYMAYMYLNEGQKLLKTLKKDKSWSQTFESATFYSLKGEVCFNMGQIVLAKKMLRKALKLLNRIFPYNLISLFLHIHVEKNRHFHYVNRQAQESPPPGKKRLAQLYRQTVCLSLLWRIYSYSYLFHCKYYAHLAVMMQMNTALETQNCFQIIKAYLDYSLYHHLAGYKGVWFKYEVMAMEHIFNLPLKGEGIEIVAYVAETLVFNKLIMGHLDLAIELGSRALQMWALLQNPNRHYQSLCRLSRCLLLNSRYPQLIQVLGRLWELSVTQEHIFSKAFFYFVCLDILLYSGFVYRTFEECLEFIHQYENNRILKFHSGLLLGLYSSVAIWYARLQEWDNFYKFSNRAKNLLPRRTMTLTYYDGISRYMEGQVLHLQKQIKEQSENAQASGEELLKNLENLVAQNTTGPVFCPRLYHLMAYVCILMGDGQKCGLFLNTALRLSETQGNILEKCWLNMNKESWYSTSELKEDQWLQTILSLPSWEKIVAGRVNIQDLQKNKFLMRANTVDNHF

As for `CN(c1ccc2[nH]c(C(=O)NCCN3CCOCC3)c(-c3ccccc3)c2c1)S(=O)(=O)c1ccc(C(C)(C)C)cc1`, the IC50 in data set [1] came out at 2600 nM. The same measure, in the same setting: to `CC(O)CNC(=O)c1[nH]c2ccc(N(C)S(=O)(=O)c3ccc(C(C)(C)C)cc3)cc2c1-c1ccccc1` (racemic) [Example 4, (±)-5-[(4-tert-Butyl-phenylsulfonyl)-methyl-amino]-3-phenyl-1H-indole-2-carboxylic acid-(2-hydroxy-propyl)-amide] belongs 1300 nM. `Cc1cc2c(C(C)C)c(O)c(O)c(C=O)c2c(O)c1-c1c(C)cc2c(C(C)C)c(O)c(O)c(C=O)c2c1O` [gossypol]: the toxicity result in data set [2] is recorded as “inherently toxic”.

The record behind these values is patent publication US20070225284A1, “Inhibitors of soluble adenylate cyclase” (priority 2006, published 2007).
